Measured values taken from paper PMC6264499, “In silico identification and experimental validation of hits active against KPC-2 β-lactamase” (PLoS ONE, 2018).

Tests used:
[1] = system: Kpn (C-); experiment: MIC of meropenem, alone or 1:1 with compounds, control strain; type: cell-based, K. pneumoniae; details: Klebsiella pneumoniae, no compound added
Experimental: (§1) The antimicrobial activity of the best hits 9a and 11a and their derivatives was studied in bacterial cell cultures to investigate their ability to cross the outer membrane reaching the periplasmic space, where KPC-2 is secreted and confined in Gram negative bacteria. Compounds were tested for synergy with the β-lactam antibiotic meropenem against four K. pneumoniae clinical strains, isolated from different patients at the Hospital Universitario Son Espases, Palma de Mallorca, Spain. […] The three additional strains harbored the blaKPC-2 gene and were resistant to meropenem (Table 2). […] However, against strain Kpn 53A8 the MIC value was lowered by a factor of two when meropenem was combined with compounds 32a, 1b, 2b, 5b and 6b while in combination with compound 11a the MIC value was reduced by 4 fold.

[2] = system: Kpn 53A9; experiment: MIC of meropenem, alone or 1:1 with compounds, KPC-2 clinical strain; type: cell-based, K. pneumoniae; details: Klebsiella pneumoniae, no compound added
Experimental: as §1

[3] = system: Kpn 53A8; experiment: as above; type: cell-based, K. pneumoniae; details: Klebsiella pneumoniae; Kpn 53A8; no compound added
Experimental: as §1

[4] = system: Kpn 99D8; experiment: as above; type: cell-based, K. pneumoniae; details: Klebsiella pneumoniae, no compound added
Experimental: as §1

[5] = Dynamic light scattering, aggregating behavior; type: physicochemical; details: dynamic light scattering (data not shown)
Experimental: (§2) For compound 9a binding affinity and mode of inhibition was determined by using gradient concentrations of CENTA. […] For this compound aggregating behavior was also excluded by dynamic light scattering experiment (data not shown).

[6] = molecular target: T1, recombinant KPC-2 (Klebsiella pneumoniae, UniProt Q9F663); experiment: KPC-2 inhibition assay, CENTA as reporter substrate; type: biochemical
T1 construct: made in house; host or cells: E. coli BL21 (DE3)
Experimental: The blaKPC-2 gene was kindly provided by Prof. Sergei Vakulenko (University of Notre Dame du Lac, Indiana, USA) and cloned as already reported and transformed into competent E.coli BL21 (DE3) cells for protein expression. 50 mL of Tryptic Soy Broth (TSB) (50 mg/L kanamycin) were inoculated with fresh colonies and grown at 37°C. 4 mL of the overnight culture was used to inoculate 1.3 L of TSB (50 mg/L kanamycin) grown at 37°C with shaking to an optical density of 0.5 measured at 600 nm. Then expression of recombinant bla gene was induced by adding 1.0 mM IPTG (isopropyl-D-thiogalactopyranoside) and the cells were again allowed to grow at 20°C overnight. Bacteria were harvested by centrifugation at 4000 rpm for 20 minutes. The pelleted cells were resuspended in Tris-HCl 50 mM pH 7.4–7.5. Periplasmatic proteins were extracted as reported in the pET System Manual (TB055 10th Edition Rev. B 0403) and subsequently dialyzed in sodium acetate buffer (50 mM, pH 5.0). The protein was conveniently purified in a single step using a Macro-Prep High S resin and eluted using sodium acetate 50 mM pH 5.0 and a sodium chloride (NaCl) linear gradient from 100 to 500 mM. The purified protein was dialyzed overnight in sodium phosphate buffer 50 mM, pH 7.0 [31, 32].
The hydrolytic activity of KPC-2 was measured using the β-lactam substrates CENTA (100 uM, KM 70 uM) or nitrocefin (114 uM, KM 36 μM) in reaction buffer consisting of 50 mM of PB at pH 7.0 at 25°C with 0.01% v/v Triton X-100 to avoid compound aggregation and promiscuous inhibition.[33] Reactions were monitored using a Beckmann DU640 spectrophotometer at […] for CENTA and 480 nm wavelength for nitrocefin [34]. The test compounds were synthesized as described below or purchased from Enamine, TimTec, Vitas-M, ChemBridge, Otava, Life Chemicals or Apollo Scientific and assayed without further purification. Compounds were dissolved in dimethyl sulfoxide (DMSO) to a concentration of 25 mM and stored at -20°C. The highest concentration at which the compounds were tested was up to 1 mM (depending on their solubility). All experiments were performed in duplicate and the error never exceeded 5%. The reaction was typically initiated by adding KPC-2 to the reaction buffer last. To control for incubation effects, protein was added to the reaction buffer first, and the reaction was initiated by the addition of reporter substrate after 10 minutes of enzyme-compound incubation.
Fig 4 Inhibitory activity of compounds selected from virtual screening. ^[a]Assays were performed in duplicate (errors were less than 5%) with CENTA as reporter substrate (100 μM, km 70 μM). Kinetic were monitored at 25° by following the absorbance variation at λ = 405 nm. ^[b] If no IC50 has been measured, percent inhibition at the highest tested concentration is given in parentheses. For example, > 0.50 (26%) implies that the highest concentration tested was 0.50 mM; at this concentration, the enzyme was inhibited by 26%. Therefore, IC50> 0.50 mM. When % Inhibition was below 10% No Inibition (NI) is reported. ^[c]Assays were run after 10’ incubation of the inhibitor with KPC-2. Reaction was started by the addition of CENTA. […] 0 (11) | 32a: IC50 mM ^[a,b]: 1.24
Competitive inhibition mechanism and the Ki for compound 9a was determined by Lineweaver–Burk (LB) and Dixon plots.

[7] = molecular target: CTX-M9 (Escherichia coli, UniProt Q9L5C8); experiment: Inhibition of other class A β-lactamase CTX-M9; type: biochemical
Experimental: as §2

T1 sequence (Q9F663 25-293, looked up): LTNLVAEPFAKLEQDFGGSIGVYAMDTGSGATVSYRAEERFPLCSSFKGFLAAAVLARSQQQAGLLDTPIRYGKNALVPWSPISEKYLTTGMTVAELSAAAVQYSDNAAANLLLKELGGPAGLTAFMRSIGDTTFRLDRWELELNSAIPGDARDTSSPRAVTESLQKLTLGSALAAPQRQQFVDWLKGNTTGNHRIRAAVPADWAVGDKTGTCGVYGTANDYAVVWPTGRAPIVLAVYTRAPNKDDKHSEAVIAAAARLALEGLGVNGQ
Sequence of CTX-M9 (Q9L5C8 29-291): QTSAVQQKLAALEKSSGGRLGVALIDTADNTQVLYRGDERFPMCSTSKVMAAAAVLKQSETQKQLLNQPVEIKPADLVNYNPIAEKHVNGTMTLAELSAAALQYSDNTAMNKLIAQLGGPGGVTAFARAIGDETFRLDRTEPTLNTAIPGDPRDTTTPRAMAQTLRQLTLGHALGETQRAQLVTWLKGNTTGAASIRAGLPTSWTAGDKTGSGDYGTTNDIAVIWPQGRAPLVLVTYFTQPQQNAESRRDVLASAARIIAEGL

MIC [1] [µg/mL] | MIC [2] [µg/mL] | MIC [3] [µg/mL] | MIC [4] [µg/mL] | SMILES | aggregating behavior [5] | IC50 ([6]; CENTA 100 μM, after 10' incubation of the inhibitor with KPC-2, read-out: IC50) [µM] | Ki ([6]; Lineweaver–Burk and Dixon plots, gradient concentrations of CENTA, read-out: Ki (determined)) [µM] | ligand efficiency (LE) ([6]; vs KPC-2) | mode of inhibition ([6]; vs KPC-2) | IC50 [7] [µM]
< 0.25 | 256 | 256 | 256 | C[C@@H](O)[C@H]1C(=O)N2C(C(=O)O)=C(S[C@@H]3CN[C@H](C(=O)N(C)C)C3)[C@H](C)[C@H]12 [meropenem] | – | – | – | – | – | –
– | – | – | – | COc1ccc2nc(C(=O)O)sc2c1 [9a] | excluded | 150 | 112 | 0.38 kcal/mol/non-hydrogen atom | competitive inhibitor | 160
